Experimental findings from PubChem BioAssay (NCI) are described below.

Among the test systems are CAKI-1 renal; HCT-116 colon; IGROV1 ovarian; NCI-H460 lung; PC-3 prostate; SF-268 CNS; SK-MEL-28 melanoma; TK-10 renal; UACC-62 melanoma; UO-31 renal.
What all share (assay): NCI anticancer screen, dose series, 48 h

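Method: 48-hour compound exposure of cells in 96-well plates, five concentrations, linear interpolation of endpoints. GI50 marks 50% less growth. TGI denotes the concentration required for complete inhibition of growth.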 Some results are limits rather than exact numbers.

For `CCOC1C=CCCO1` (stereo not drawn), the TGI with CAKI-1 renal, with HCT-116 colon, in the assay with IGROV1 ovarian, in the assay with NCI-H460 lung, in the assay on PC-3 prostate and with SF-268 CNS was > 100 µM throughout. Moreover, the TGI is > 100 µM in the assay on SK-MEL-28 melanoma, > 100 µM in the assay on TK-10 renal, > 100 µM in the assay on UACC-62 melanoma and 38.8 µM in the assay on UO-31 renal.
With `CC(=O)c1c[nH]cc1CO`, the TGI in the assay with CAKI-1 renal, in the assay with HCT-116 colon, in the assay on IGROV1 ovarian, with NCI-H460 lung, with PC-3 prostate and in the assay with SF-268 CNS was > 10 µM throughout. Moreover, the TGI in the assay on SK-MEL-28 melanoma, with TK-10 renal and with UO-31 renal was > 10 µM each time.
Turning to `C/C=C/C=C\C1OC(O)([C@H](CC)C(=O)NC/C=C/C=C(\C)[C@H](OC)C(C)C2OC(\C=C/C=C/C=C(\C)C(=O)c3c(O)ccn(C)c3=O)[C@H](O)[C@@H]2O)C(O)C(O)C1(C)C` (stereo partly drawn), the TGI with CAKI-1 renal, in the assay with HCT-116 colon, in the assay with IGROV1 ovarian, in the assay with NCI-H460 lung, with PC-3 prostate and in the assay on SF-268 CNS was > 100 µM in each case. The TGI in the assay on SK-MEL-28 melanoma, in the assay with TK-10 renal, in the assay with UACC-62 melanoma and in the assay on UO-31 renal was > 100 µM throughout.
Regarding `O=C1/C(=C/c2ccc(Cl)cc2)COc2ccc(O)c(O)c21`, the GI50 in the assay with CAKI-1 renal is 1.07 µM; with IGROV1 ovarian it was 0.438 µM; with NCI-H460 lung it was 1.78 µM; in the assay with PC-3 prostate, 0.501 µM; in the assay on SF-268 CNS, 1.44 µM; in the assay on SK-MEL-28 melanoma it was 1.53 µM. Moreover, the GI50 in the assay on TK-10 renal is 1.71 µM; in the assay on UACC-62 melanoma, 1.27 µM; in the assay with UO-31 renal, 0.458 µM. Further, the TGI with CAKI-1 renal came out at 2.28 µM; in the assay on IGROV1 ovarian, 2.16 µM; in the assay with NCI-H460 lung, 3.89 µM; in the assay with PC-3 prostate, 3.48 µM; with SF-268 CNS, 3.06 µM; in the assay with SK-MEL-28 melanoma, 3.06 µM. Also, the TGI in the assay on TK-10 renal was found to be 3.19 µM; in the assay with UACC-62 melanoma it was 2.63 µM; in the assay with UO-31 renal it was 1.84 µM.
`COc1cccc2c(=O)c3c(sc12)c(NCCN(C)C)nc1ccccc13`: the GI50 is 1.36 µM with CAKI-1 renal; 0.538 µM in the assay with HCT-116 colon; 1.19 µM in the assay with IGROV1 ovarian; 1.34 µM with NCI-H460 lung; 1.34 µM in the assay with PC-3 prostate; 1.6 µM with SF-268 CNS. Also, the GI50 in the assay on SK-MEL-28 melanoma was 1.92 µM; in the assay with UACC-62 melanoma, 1.72 µM; in the assay on UO-31 renal, 0.461 µM. Besides, the TGI in the assay on CAKI-1 renal was determined as 3.12 µM; with HCT-116 colon it was 1.85 µM; with IGROV1 ovarian it was 2.7 µM; with NCI-H460 lung, 2.88 µM; in the assay on PC-3 prostate it was 3.03 µM; with SF-268 CNS it was 3.57 µM. The results for the TGI with SK-MEL-28 melanoma, with UACC-62 melanoma and with UO-31 renal were 3.49 µM, 3.24 µM and 2 µM, respectively.
With `COc1cc(-c2oc3c(OC)c(O)c(OC)c(O)c3c(=O)c2OC)ccc1O`, the TGI with CAKI-1 renal is 90.1 µM; with HCT-116 colon, > 100 µM; in the assay on IGROV1 ovarian, 65.9 µM; with NCI-H460 lung, > 100 µM; in the assay with PC-3 prostate, > 100 µM; with SK-MEL-28 melanoma, > 100 µM. The TGI in the assay on TK-10 renal is 98.9 µM; in the assay with UACC-62 melanoma it was > 100 µM; with UO-31 renal, 85.2 µM.
With `CSC1C(=O)c2ccccc2/C(=N/Nc2nc3ccccc3s2)C1C` (stereo not drawn), the GI50 in the assay on CAKI-1 renal is 8.85 µM; in the assay with HCT-116 colon, 4.67 µM; with IGROV1 ovarian, 0.648 µM; in the assay on NCI-H460 lung, 11 µM; in the assay with PC-3 prostate it was 9.28 µM; in the assay on SF-268 CNS, 7.96 µM. Moreover, the GI50 is 15.6 µM with TK-10 renal, 8.67 µM with UACC-62 melanoma and 6.02 µM in the assay on UO-31 renal. In addition, the TGI amounted to 20.1 µM in the assay on CAKI-1 renal; 28.8 µM in the assay with HCT-116 colon; 4.22 µM in the assay with IGROV1 ovarian; 25.7 µM with NCI-H460 lung; 27.2 µM in the assay with PC-3 prostate; 19.1 µM in the assay on SF-268 CNS. The TGI in the assay with TK-10 renal was found to be 42 µM; in the assay on UACC-62 melanoma, 16.5 µM; with UO-31 renal, 13.8 µM.
Regarding `O=C(/C=C/c1ccc(C(F)(F)F)cc1)c1ccc(Nc2nc(NCCO)nc(N3CCOCC3)n2)cc1`, the GI50 is 2.54 µM with CAKI-1 renal; 1.43 µM in the assay on HCT-116 colon; 2 µM in the assay with IGROV1 ovarian; 2.15 µM in the assay with NCI-H460 lung; 2.24 µM in the assay with PC-3 prostate; 2.68 µM in the assay on SF-268 CNS. Also, the GI50 is 3.25 µM in the assay on SK-MEL-28 melanoma, 2.76 µM with UACC-62 melanoma and 1.31 µM in the assay on UO-31 renal. Besides, the TGI worked out at 15.6 µM in the assay with CAKI-1 renal; 2.74 µM with HCT-116 colon; 4.42 µM in the assay on IGROV1 ovarian; 4.44 µM in the assay with NCI-H460 lung; 7.83 µM in the assay with PC-3 prostate; 11.1 µM with SF-268 CNS. Also, the TGI with SK-MEL-28 melanoma is 11.5 µM; with UACC-62 melanoma it was 8.87 µM; in the assay with UO-31 renal it was 2.58 µM.
For the compound `COc1ccc2c(c1)OC(N)=C(C#N)C2c1ccc(F)cc1` (stereo not drawn), the GI50 is 1.09 µM with HCT-116 colon; 2.38 µM with IGROV1 ovarian; 2.05 µM in the assay with NCI-H460 lung; 3.09 µM in the assay with PC-3 prostate; 7.38 µM in the assay with SF-268 CNS; 15.2 µM in the assay with SK-MEL-28 melanoma. Also, the GI50 in the assay with TK-10 renal was 5.83 µM; in the assay on UACC-62 melanoma, 0.571 µM; in the assay with UO-31 renal, 5.64 µM. Moreover, the TGI was 26 µM with HCT-116 colon; > 100 µM in the assay on IGROV1 ovarian; > 100 µM in the assay with NCI-H460 lung; 99 µM with PC-3 prostate; > 100 µM in the assay with SF-268 CNS; > 100 µM in the assay on SK-MEL-28 melanoma. For the same compound, the TGI in the assay with TK-10 renal, in the assay on UACC-62 melanoma and in the assay on UO-31 renal was > 100 µM each time.
Consider `COc1cc([N+](=O)[O-])c(OC)cc1-c1nc2sc(Cl)cn2c1/C=N/NC(=N)N/N=C/c1c(-c2cc(OC)c([N+](=O)[O-])cc2OC)nc2sc(Cl)cn12`, for which the GI50 is 4.33 µM with CAKI-1 renal; 1.76 µM in the assay on HCT-116 colon; 2.57 µM with NCI-H460 lung; 1.97 µM in the assay on PC-3 prostate; 3.19 µM in the assay with SK-MEL-28 melanoma. Also, the TGI in the assay with CAKI-1 renal was 23.8 µM; in the assay with HCT-116 colon, 3.15 µM; in the assay on NCI-H460 lung, 7.13 µM; in the assay on PC-3 prostate, 3.47 µM; with SK-MEL-28 melanoma, > 100 µM.
